Assay results from the supplement of paper PMC10307832.

Key:
Assay in all cases: relative viability (nuclei count vs DMSO), 5 days (fraction); higher = more cells survive
[1] = compound: COC1=C(C=C(C=C1)C2=CC3=NC=CN3C(=N2)NC4=C(C=CC=N4)C(=O)N)OC [BAY61-3606] + COc1cccc2cc(-c3nc([C@H]4CC[C@H](C(=O)O)CC4)n4ncnc(N)c34)[nH]c12 [OSI-027] (partner 0.5 µM)
Outline: (§1)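 Lung cancer cell lines in 1536-well plates were dosed by pin tool the day after seeding, either with one drug alone or with a fixed anchor-drug dose plus five library-drug doses (not always all listed) in √10 steps. After 5 days, cells were fixed and their nuclei stained in one step (final 0.05% Triton X-100, 1% formaldehyde, 1 ug/ml Hoechst), then counted on 4× images. Relative viability is the nuclei count in treated wells divided by that in vehicle wells. Values are medians of duplicate plates.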

[2] = compound: COC1=C(C=C(C=C1)C2=CC3=NC=CN3C(=N2)NC4=C(C=CC=N4)C(=O)N)OC [BAY61-3606] + N=C(N)NC(=N)NCCc1ccccc1 [Phenformin] (partner 250 µM)
Outline: as §1

[3] = compound: COC1=C(C=C(C=C1)C2=CC3=NC=CN3C(=N2)NC4=C(C=CC=N4)C(=O)N)OC [BAY61-3606] + C[C@]1(O)C[C@@H](c2nc(-c3ccc4ccc(-c5ccccc5)nc4c3)c3c(N)nccn32)C1 [Linsitinib] (partner 1 µM)
Outline: as §1

[4] = compound: COc1cccc2c1C(=O)c1c(O)c3c(c(O)c1C2=O)C[C@@](O)(C(=O)CO)C[C@@H]3O[C@H]1C[C@H](N)[C@H](O)[C@H](C)O1 [Doxorubicin] + CCNC(=O)c1noc(-c2cc(C(C)C)c(O)cc2O)c1-c1ccc(CN2CCOCC2)cc1 [Luminespib] (partner 0.01 µM)
Outline: as §1

Row | Cell Line | relative viability ([1]; first compound 0.02 µM) | relative viability ([1]; first compound 0.06325 µM) | relative viability ([1]; first compound 0.2 µM) | relative viability ([1]; first compound 0.6325 µM) | relative viability ([1]; first compound 2 µM) | relative viability ([2]; first compound 0.02 µM) | relative viability ([2]; first compound 0.06325 µM) | relative viability ([2]; first compound 0.2 µM) | relative viability ([2]; first compound 0.6325 µM) | relative viability ([2]; first compound 2 µM) | relative viability ([3]; first compound 0.02 µM) | relative viability ([3]; first compound 0.06325 µM) | relative viability ([3]; first compound 0.2 µM) | relative viability ([3]; first compound 0.6325 µM) | relative viability ([3]; first compound 2 µM) | relative viability ([4]; first compound 0.001 µM) | relative viability ([4]; first compound 0.003162 µM) | relative viability ([4]; first compound 0.01 µM) | relative viability ([4]; first compound 0.03162 µM) | relative viability ([4]; first compound 0.1 µM)
1 | NCI-H1563 | 0.742 | 0.764 | 0.699 | 0.71 | 0.676 | 0.631 | 0.59 | 0.604 | 0.62 | 0.61 | 1.37 | 1.42 | 1.2 | 1.12 | 1.03 | 0.486 | 0.549 | 0.536 | 0.528 | 0.491
2 | COR-L23 | 0.764 | 0.806 | 0.712 | 0.778 | 0.496 | 0.474 | 0.438 | 0.495 | 0.466 | 0.352 | 1.02 | 1.07 | 0.957 | 0.903 | 0.641 | 0.678 | 0.637 | 0.567 | 0.163 | 0.147
3 | ABC-1 | 0.51 | 0.545 | 0.521 | 0.647 | 0.452 | 0.254 | 0.269 | 0.219 | 0.227 | 0.284 | 0.774 | 0.948 | 0.879 | 0.827 | 0.631 | 0.484 | 0.418 | 0.347 | 0.339 | 0.213
4 | NCI-H522 | 0.653 | 0.646 | 0.686 | 0.717 | 0.738 | 0.634 | 0.624 | 0.674 | 0.749 | 0.557 |  |  |  |  |  |  | 1.21 | 1.12 | 0.885 | 1.15
5 | SW 1573 | 0.613 | 0.552 | 0.51 | 0.63 | 0.325 | 0.288 | 0.336 | 0.342 | 0.328 | 0.166 | 0.821 | 0.762 | 0.803 | 0.674 | 0.625 | 0.22 | 0.206 | 0.178 | 0.0908 | 0.0847
6 | SW 900 | 0.616 | 0.529 | 0.612 | 0.747 | 0.427 | 0.736 | 0.456 | 0.489 | 0.594 | 0.473 |  |  |  |  |  | 0.176 | 0.152 | 0.162 | 0.167 | 0.175
7 | A549 |  |  |  |  |  | 0.17 | 0.0908 | 0.0972 | 0.212 | 0.166 | 0.765 | 0.63 | 0.642 | 0.77 | 0.588 |  |  |  |  | 
8 | A-427 | 0.538 | 0.44 | 0.479 | 0.542 | 0.476 | 0.417 | 0.235 | 0.287 | 0.315 | 0.257 | 1.14 | 1.07 | 1.06 | 1.06 | 1.15 | 0.803 | 0.784 | 0.866 | 0.656 | 0.64
9 | NCI-H1915 | 0.623 | 0.632 | 0.571 | 0.662 | 0.443 | 0.369 | 0.376 | 0.328 | 0.366 | 0.261 | 1.1 | 1.06 | 1.05 | 1.06 | 0.854 | 0.802 | 0.733 | 0.702 | 0.715 | 0.779
10 | LOU-NH91 | 0.743 | 0.725 | 0.766 | 0.719 | 0.708 | 0.716 | 0.697 | 0.695 | 0.702 | 0.649 | 0.978 | 0.858 | 0.977 | 1.01 | 0.796 | 0.34 | 0.347 | 0.314 | 0.323 | 0.328
11 | NCI-H1734 | 0.605 | 0.523 | 0.529 | 0.542 | 0.372 | 0.446 | 0.338 | 0.288 | 0.354 | 0.244 | 0.827 | 0.853 | 0.849 | 0.866 | 0.607 | 0.869 | 0.196 | 0.175 | 0.18 | 0.213
12 | LCLC-97TM1 | 0.515 | 0.608 | 0.581 | 0.423 | 0.392 | 0.419 | 0.441 | 0.455 | 0.415 | 0.451 | 0.182 |  | 0.187 | 0.18 | 0.175 | 0.718 | 0.818 | 0.677 | 0.772 | 0.834
13 | HCC-366 | 1.07 | 0.875 | 0.81 | 0.862 | 0.715 | 0.642 | 0.512 | 0.613 | 0.565 | 0.504 | 0.831 | 0.613 | 0.689 | 0.694 | 0.366 |  |  |  |  | 
14 | NCI-H1703 |  |  |  |  |  |  |  |  |  |  | 0.596 | 0.389 | 0.842 | 0.808 | 0.341 |  |  |  |  | 
15 | ChaGo-K-1 | 0.537 | 0.533 | 0.519 | 0.495 | 0.639 | 0.513 | 0.451 | 0.515 | 0.462 | 0.52 |  |  |  |  |  | 0.614 | 0.592 | 0.651 | 0.52 | 0.54
16 | Calu-6 |  |  |  |  |  |  |  |  |  |  | 0.977 | 1.02 | 0.893 | 0.901 | 0.759 |  |  |  |  | 
17 | NCI-H2170 | 0.693 | 0.65 | 0.8 | 0.776 | 0.597 | 0.399 | 0.356 | 0.434 | 0.401 | 0.385 |  |  |  |  |  | 0.484 | 0.89 | 0.772 | 0.5 | 0.758
18 | NCI-H1648 | 0.219 | 0.257 | 0.263 | 0.229 | 0.217 |  |  |  |  |  |  |  |  |  |  |  |  |  |  | 
19 | EBC-1 |  |  |  |  |  |  |  |  |  |  | 1.02 | 0.91 | 0.835 | 0.949 | 0.628 |  |  |  |  | 
20 | NCI-H2342 | 0.705 | 0.609 | 0.596 | 0.682 | 0.664 | 0.629 | 0.65 | 0.535 | 0.586 | 0.662 |  |  |  |  |  | 0.816 | 0.739 | 0.585 | 0.507 | 0.787
21 | NCI-H1299 |  |  |  |  |  |  |  |  |  |  | 0.977 | 1.03 | 0.994 | 1 | 0.89 |  |  |  |  | 
22 | IA-LM |  |  |  |  |  |  |  |  |  |  | 0.52 | 0.573 | 0.559 | 0.662 | 0.354 |  |  |  |  | 
